Holding throughout (assay): DSF Tm panel
Format in all cases: binding
Common to all, as to conditions: 10 μM compound

One assay has as its target T1, BMPR2A (Homo sapiens, UniProt Q13873).
T1 construct: purchased in-house DSF kinase panel (SGC-style construct names; the trailing letter is the construct ID)
T1 sequence (Q13873 27-1038): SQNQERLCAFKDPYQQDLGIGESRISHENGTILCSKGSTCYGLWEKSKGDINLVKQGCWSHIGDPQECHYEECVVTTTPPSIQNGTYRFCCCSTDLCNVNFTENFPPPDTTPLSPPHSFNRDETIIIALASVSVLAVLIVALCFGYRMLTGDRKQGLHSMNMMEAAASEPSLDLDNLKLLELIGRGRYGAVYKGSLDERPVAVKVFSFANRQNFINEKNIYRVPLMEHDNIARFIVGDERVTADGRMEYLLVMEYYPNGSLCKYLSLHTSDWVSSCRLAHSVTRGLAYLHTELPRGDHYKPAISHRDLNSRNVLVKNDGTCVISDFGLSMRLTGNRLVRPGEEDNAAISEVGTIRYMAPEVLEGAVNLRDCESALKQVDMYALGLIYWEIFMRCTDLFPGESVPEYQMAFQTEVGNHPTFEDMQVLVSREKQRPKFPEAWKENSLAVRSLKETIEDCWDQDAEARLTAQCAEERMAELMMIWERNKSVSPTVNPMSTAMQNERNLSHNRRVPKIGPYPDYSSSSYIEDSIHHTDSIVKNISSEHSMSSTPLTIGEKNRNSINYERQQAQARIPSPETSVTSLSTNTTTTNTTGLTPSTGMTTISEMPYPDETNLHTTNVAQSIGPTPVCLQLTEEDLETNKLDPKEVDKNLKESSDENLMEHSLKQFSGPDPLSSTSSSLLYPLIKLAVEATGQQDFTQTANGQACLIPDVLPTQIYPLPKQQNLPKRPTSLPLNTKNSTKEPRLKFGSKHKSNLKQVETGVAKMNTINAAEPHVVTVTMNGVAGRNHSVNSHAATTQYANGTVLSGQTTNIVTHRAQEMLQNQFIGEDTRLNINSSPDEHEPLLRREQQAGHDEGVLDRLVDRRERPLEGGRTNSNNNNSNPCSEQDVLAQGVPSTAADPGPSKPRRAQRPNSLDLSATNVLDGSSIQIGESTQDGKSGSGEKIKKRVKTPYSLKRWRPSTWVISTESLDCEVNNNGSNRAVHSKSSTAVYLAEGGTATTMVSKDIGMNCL

The next assay concerns the target T2, K2A2 (CSNK2A2A) (Homo sapiens, UniProt P19784).
T2 construct: purchased in-house DSF kinase panel (SGC-style construct names; the trailing letter is the construct ID)

Another assay addresses T3, PAK4A (Homo sapiens, UniProt O96013).
T3 construct: purchased in-house DSF kinase panel (SGC-style construct names; the trailing letter is the construct ID)

Another assay deals with T4, STK17AA (Homo sapiens, UniProt Q9UEE5).
T4 construct: purchased in-house DSF kinase panel (SGC-style construct names; the trailing letter is the construct ID)
T4 sequence (Q9UEE5 61-321): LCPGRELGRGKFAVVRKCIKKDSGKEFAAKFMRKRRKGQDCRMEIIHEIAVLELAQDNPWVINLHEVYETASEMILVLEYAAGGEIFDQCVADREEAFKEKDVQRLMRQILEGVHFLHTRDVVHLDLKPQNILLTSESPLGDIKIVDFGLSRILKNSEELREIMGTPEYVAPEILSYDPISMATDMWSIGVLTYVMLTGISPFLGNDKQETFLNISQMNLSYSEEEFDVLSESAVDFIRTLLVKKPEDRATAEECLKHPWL

A further assay deals with T5, MAPK15A (MAPK15HSD) (Homo sapiens, UniProt Q8TD08).
T5 sequence (Q8TD08 13-304 limits assumed): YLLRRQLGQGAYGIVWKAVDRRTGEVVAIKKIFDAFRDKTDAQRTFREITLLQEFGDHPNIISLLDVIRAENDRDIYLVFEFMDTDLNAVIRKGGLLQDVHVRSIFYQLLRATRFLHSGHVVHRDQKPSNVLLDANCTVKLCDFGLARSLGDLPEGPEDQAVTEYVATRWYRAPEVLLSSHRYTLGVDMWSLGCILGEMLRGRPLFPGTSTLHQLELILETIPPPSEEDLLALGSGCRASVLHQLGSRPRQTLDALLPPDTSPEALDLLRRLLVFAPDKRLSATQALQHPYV

Another assay addresses T6, ABL1 (ABL1A) (Homo sapiens, UniProt P00519).
T6 construct: purchased in-house DSF kinase panel (SGC-style construct names; the trailing letter is the construct ID)
T6 sequence (P00519 229-512): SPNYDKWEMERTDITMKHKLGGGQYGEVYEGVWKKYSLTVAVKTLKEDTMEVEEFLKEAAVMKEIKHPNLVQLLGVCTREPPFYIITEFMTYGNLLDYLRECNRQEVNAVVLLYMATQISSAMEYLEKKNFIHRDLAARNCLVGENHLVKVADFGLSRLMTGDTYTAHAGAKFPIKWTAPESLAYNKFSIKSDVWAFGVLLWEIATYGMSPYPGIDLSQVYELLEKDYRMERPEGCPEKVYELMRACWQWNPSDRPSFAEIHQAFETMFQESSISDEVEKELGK

A further assay concerns the target T7, AKT3A (Homo sapiens, UniProt Q9Y243).
T7 construct: purchased in-house DSF kinase panel (SGC-style construct names; the trailing letter is the construct ID)

T7 sequence (Q9Y243 148-479): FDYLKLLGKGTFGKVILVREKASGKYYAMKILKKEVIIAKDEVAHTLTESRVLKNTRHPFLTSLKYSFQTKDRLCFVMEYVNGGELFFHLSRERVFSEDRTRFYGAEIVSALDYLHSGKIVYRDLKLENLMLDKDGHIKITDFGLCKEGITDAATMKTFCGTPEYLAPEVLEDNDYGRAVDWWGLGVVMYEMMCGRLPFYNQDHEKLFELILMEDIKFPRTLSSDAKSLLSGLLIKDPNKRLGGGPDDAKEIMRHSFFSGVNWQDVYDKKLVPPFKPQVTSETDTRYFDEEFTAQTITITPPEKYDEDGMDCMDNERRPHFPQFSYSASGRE
T2 sequence (P19784 whole entry): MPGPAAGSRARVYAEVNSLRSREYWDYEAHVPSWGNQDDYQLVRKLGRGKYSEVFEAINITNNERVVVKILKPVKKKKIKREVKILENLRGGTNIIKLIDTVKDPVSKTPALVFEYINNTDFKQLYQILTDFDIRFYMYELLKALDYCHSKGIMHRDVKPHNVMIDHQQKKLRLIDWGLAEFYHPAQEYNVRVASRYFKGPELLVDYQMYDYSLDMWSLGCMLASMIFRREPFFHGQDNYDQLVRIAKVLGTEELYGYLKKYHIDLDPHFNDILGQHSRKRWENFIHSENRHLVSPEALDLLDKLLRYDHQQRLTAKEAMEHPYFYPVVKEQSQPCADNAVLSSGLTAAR
T3 sequence (O96013 291-591): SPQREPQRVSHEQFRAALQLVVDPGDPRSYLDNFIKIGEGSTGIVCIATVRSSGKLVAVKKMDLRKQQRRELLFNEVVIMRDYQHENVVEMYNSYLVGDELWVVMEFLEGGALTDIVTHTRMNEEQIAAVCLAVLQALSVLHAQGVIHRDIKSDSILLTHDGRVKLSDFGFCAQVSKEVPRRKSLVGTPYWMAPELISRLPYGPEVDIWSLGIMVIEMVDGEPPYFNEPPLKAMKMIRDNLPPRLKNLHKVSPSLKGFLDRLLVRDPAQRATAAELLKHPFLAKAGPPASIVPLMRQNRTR

By ΔTm is commonly meant the shift of the melting midpoint relative to a reference. Regarding `CN1CCN(C(=O)Nc2ccc3cc2OCCOCCNc2ccn4ncc-3c4n2)CC1` [compound 35], the ΔTm at 10 µM was 3.5 °C at BMPR2A; 3.6 °C on K2A2 (CSNK2A2A); -0.3 °C on PAK4A; 1.7 °C at STK17AA; 2 °C at MAPK15A (MAPK15HSD); 1.4 °C on ABL1 (ABL1A). On AKT3A, the ΔTm at 10 µM amounted to 0 °C.
